What was measured:
Experiment in all cases: relative viability (nuclei count vs DMSO), 5 days (fraction); higher = more cells survive
Tozasertib + Foretinib = compound: Cc1cc(Nc2cc(N3CCN(C)CC3)nc(Sc3ccc(NC(=O)C4CC4)cc3)n2)n[nH]1 [Tozasertib] + COc1cc2c(Oc3ccc(NC(=O)C4(C(=O)Nc5ccc(F)cc5)CC4)cc3F)ccnc2cc1OCCCN1CCOCC1 [Foretinib] (partner 0.25 µM)
Summary of the method: (§1)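 A single step with final 0.05% Triton X-100, 1% formaldehyde and 1 ug/ml Hoechst fixed the cells and stained nuclei 5 days after treatment. Lung cancer cell lines in 1536-well plates had been treated by pin tool the day after seeding with one drug alone or a fixed anchor-drug dose plus five library-drug doses (not always all listed) in √10 steps, and nuclei were counted on 4× images. Relative viability is the ratio of nuclei in treated wells to nuclei in vehicle wells, taken as the median of duplicate plates.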

Tozasertib + Pemetrexed = compound: Cc1cc(Nc2cc(N3CCN(C)CC3)nc(Sc3ccc(NC(=O)C4CC4)cc3)n2)n[nH]1 [Tozasertib] + Nc1nc2[nH]cc(CCc3ccc(C(=O)N[C@@H](CCC(=O)O)C(=O)O)cc3)c2c(=O)[nH]1 [Pemetrexed] (partner 0.2 µM)
Summary of the method: as §1

Tozasertib + Bortezomib = compound: Cc1cc(Nc2cc(N3CCN(C)CC3)nc(Sc3ccc(NC(=O)C4CC4)cc3)n2)n[nH]1 [Tozasertib] + CC(C)C[C@H](NC(=O)[C@H](Cc1ccccc1)NC(=O)c1cnccn1)B(O)O [Bortezomib] (partner 0.002 µM)
Summary of the method: as §1

Tozasertib + Lapatinib = compound: Cc1cc(Nc2cc(N3CCN(C)CC3)nc(Sc3ccc(NC(=O)C4CC4)cc3)n2)n[nH]1 [Tozasertib] + CS(=O)(=O)CCNCc1ccc(-c2ccc3ncnc(Nc4ccc(OCc5cccc(F)c5)c(Cl)c4)c3c2)o1 [Lapatinib] (partner 2 µM)
Summary of the method: as §1

Tozasertib + Crizotinib = compound: Cc1cc(Nc2cc(N3CCN(C)CC3)nc(Sc3ccc(NC(=O)C4CC4)cc3)n2)n[nH]1 [Tozasertib] + C[C@@H](Oc1cc(-c2cnn(C3CCNCC3)c2)cnc1N)c1c(Cl)ccc(F)c1Cl [Crizotinib] (partner 1 µM)
Summary of the method: as §1

Row | Cell Line | relative viability (Tozasertib + Foretinib; first compound 0.004 µM) | relative viability (Tozasertib + Foretinib; first compound 0.01265 µM) | relative viability (Tozasertib + Foretinib; first compound 0.04 µM) | relative viability (Tozasertib + Foretinib; first compound 0.1265 µM) | relative viability (Tozasertib + Pemetrexed; first compound 0.004 µM) | relative viability (Tozasertib + Pemetrexed; first compound 0.01265 µM) | relative viability (Tozasertib + Pemetrexed; first compound 0.04 µM) | relative viability (Tozasertib + Pemetrexed; first compound 0.1265 µM) | relative viability (Tozasertib + Bortezomib; first compound 0.004 µM) | relative viability (Tozasertib + Bortezomib; first compound 0.01265 µM) | relative viability (Tozasertib + Bortezomib; first compound 0.04 µM) | relative viability (Tozasertib + Bortezomib; first compound 0.1265 µM) | relative viability (Tozasertib + Lapatinib; first compound 0.004 µM) | relative viability (Tozasertib + Lapatinib; first compound 0.01265 µM) | relative viability (Tozasertib + Lapatinib; first compound 0.04 µM) | relative viability (Tozasertib + Lapatinib; first compound 0.1265 µM) | relative viability (Tozasertib + Crizotinib; first compound 0.004 µM) | relative viability (Tozasertib + Crizotinib; first compound 0.01265 µM) | relative viability (Tozasertib + Crizotinib; first compound 0.04 µM) | relative viability (Tozasertib + Crizotinib; first compound 0.1265 µM)
1 | NCI-H2085 | 1.03 | 0.767 | 1.03 | 0.703 | 0.935 | 0.815 | 1.03 | 0.802 | 1.01 | 1.07 | 1.11 | 0.792 | 0.784 | 0.715 | 0.774 | 0.446 | 0.953 | 0.959 | 0.667 | 0.597
2 | NCI-H2087 | 1.16 | 0.796 | 1.15 | 0.613 | 0.72 | 0.698 | 0.671 | 0.688 | 0.83 | 0.787 | 0.78 | 0.723 | 1.14 | 1.06 | 1.05 | 0.805 | 0.837 | 0.865 | 0.804 | 0.658
3 | NCI-H2126 | 1.19 | 1.24 | 1.29 | 1.12 | 0.688 | 0.736 |  | 0.729 | 1.12 | 1.1 | 1.22 | 1.14 | 0.794 | 0.805 |  | 0.567 | 1.17 | 1.03 | 1.09 | 0.996
4 | NCI-H2228 | 0.947 | 0.803 | 0.851 | 0.356 | 0.319 | 0.32 | 0.376 | 0.322 | 1.31 |  |  | 0.434 | 0.958 |  | 0.765 | 0.336 | 0.487 |  | 0.452 | 0.186
5 | NCI-H2347 | 1.17 | 0.908 | 0.842 | 0.87 | 0.44 | 0.461 | 0.45 | 0.432 | 1.18 | 0.961 | 1 | 0.658 | 1.06 | 1.01 | 0.953 | 0.763 | 0.722 | 0.71 |  | 0.723
6 | NCI-H2405 | 1.09 | 1 | 1.01 | 0.974 | 1.01 | 1.12 | 0.973 | 0.894 | 1.05 | 0.944 | 0.96 | 0.826 | 1.05 | 0.962 | 0.793 | 0.705 | 0.844 | 0.83 | 0.857 | 0.67
7 | NCI-H3122 | 0.969 | 0.94 | 0.977 | 0.944 | 0.193 | 0.214 | 0.191 | 0.218 | 1.01 | 0.994 | 1.01 | 1.02 | 0.974 | 0.992 | 1.02 | 1.04 | 0.26 | 0.287 | 0.289 | 0.277
8 | PC-3 [JPC-3] | 1 | 1.06 | 1.07 | 0.961 | 1.08 | 1.01 | 1.21 | 0.919 | 0.787 | 0.829 | 0.881 | 0.757 | 0.45 | 0.46 | 0.529 | 0.33 | 0.884 | 0.973 | 0.94 | 0.945
9 | PC-14 | 0.966 | 1.09 | 1.04 | 0.986 |  | 0.145 | 0.143 | 0.125 | 0.861 | 0.9 | 1.03 | 0.896 | 0.293 | 0.287 | 0.354 | 0.361 | 0.896 | 0.914 | 1.02 | 0.884
10 | RERF-LC-KJ | 0.795 | 0.831 | 0.957 |  | 0.465 | 0.442 | 0.486 | 0.361 | 0.983 | 1.11 | 1.12 | 0.96 | 0.86 | 0.838 | 0.925 | 0.804 | 0.815 | 0.792 | 0.734 | 0.689
11 | SK-LU-1 | 0.889 | 0.874 | 0.862 | 0.752 | 1.05 | 0.961 | 1.09 | 0.964 | 1.18 | 1.07 | 1.27 | 0.813 | 1.25 | 1.06 | 1.08 | 0.651 | 0.932 | 0.977 |  | 0.889
12 | SW 1573 | 0.839 | 0.905 | 1.02 | 0.8 | 0.793 | 0.796 | 0.848 | 0.212 | 1.15 | 1.07 | 1.22 | 0.744 | 1.03 | 1.23 | 1.21 | 1.05 | 0.782 | 0.706 | 0.762 | 0.273
13 | UMC-11 | 0.985 | 0.995 | 0.788 | 0.186 | 0.852 | 0.809 | 0.78 | 0.26 | 0.729 | 0.621 | 0.768 | 0.186 | 1.03 | 0.944 | 1.04 | 0.244 | 0.478 | 0.568 | 0.416 | 0.118

— the supplement of paper PMC10307832
